Assays:
[1] = test system: muscular dystrophy caused by FKRP mutations; experiment: Ribitol/ribose supplementation in animal model of FKRP mutation muscular dystrophy; assay type: in vivo; conditions: supplement via drinking water
C2C12 myotubes = experiment: LC/MS-MS of isotopically labeled metabolites in differentiated C2C12 myotubes; assay type: cell-based, mouse; conditions: 5 mM, 5 days

Compound: O=C[C@H](O)[C@H](O)[C@H](O)CO [ribose]
- Disease pathology of muscular dystrophy caused by FKRP mutations [1]: diminish disease pathology

Compound: ^13C5-ribitol [^13C-ribitol]
- Levels of 13C-ribitol-5P and CDP-13C-ribitol in cells (C2C12 myotubes): clearly elevated levels

Source: patent US20200061092A1, “METHODS AND COMPOSITIONS FOR TREATING DISORDERS ASSOCIATED WITH MUSCLE WEAKNESS” (priority 2018, published 2020)
